Converted amounts (≈) assume the structure as drawn. Structures can show the parent of a compound that is named as a salt. Where two headings read alike, the source gives them in different places.
Experiments:
S. enterica ATCC 14028 [1] = assay: MIC of more highly purified compounds (Table 3); format: cell-based
Source text: (§1) MIC was further evaluated using EtOAc extracts of more highly purified Compound #1 and Compound #2. MIC of these compounds was compared to ACHN-490 (Plazomicin; an aminoglycoside effective primarily against Gram-negative bacteria), Colistin (a polymyxin antibiotic effective against most Gram-negative bacilli), and Meropenem (an ultra broad-spectrum, beta-lactam antibiotic).

A. baumannii ATCC 19606 = assay: MIC of more highly purified compounds (Table 3); format: cell-based
Source text: as §1

[2] = tested on: S. aureus (MRSA) ATCC 33591; assay: MIC of more highly purified compounds (Table 3); format: cell-based; settings: EtOAc extracts of more highly purified compounds
Source text: as §1

C. difficile ATCC 700057 = assay: MIC broth dilution assay (Table 2); format: cell-based, Clostridium difficile; settings: Clostridioides difficile
Description: (§2) Stocks of test compounds and standards were diluted 1:100 to provide working stocks in each growth medium. For P. aeruginosa, S. enterica and S. aureus, eleven serial, one-half dilutions of the compounds and standards were prepared in 96-well polypropylene dilution blocks in cation-adjusted Mueller Hinton broth (CAMHB). The dilutions were transferred to 96-well assay plates. […] Bacterial suspensions were prepared and added to each well at a concentration of approximately 5×10^5 colony-forming-units per milliliter. […] At the completion of incubation the wells of each plate were evaluated visually for the presence of bacterial growth. The MIC was the concentration at which there was no growth. MICs against H. influenzae, S. pneumoniae and C. difficile were determined similarly, but dilutions were prepared directly in the 96-well assay plates and MIC parameters were as indicated below (Table 1). [table]

[3] = tested on: Listeria grayi (ATCC 19120); assay: bacterial growth inhibition assay (cellulose disks); format: cell-based; settings: 0.85 μg on 6 mm cellulose disk
Description: (§3) To evaluate the antibiotic properties of the compounds produced by the NRPS cluster, Compound #1 or Compound #2 (0.85 μg) was diluted in 2 μl DMSO and soaked onto 6 mm cellulose disks for a bacterial growth inhibition assay.

E. coli (ATCC 25922) = assay: as above; format: cell-based; settings: 0.85 μg on 6 mm cellulose disk
Description: as §3

[4] = tested on: Acinetobacter baumannii (ATCC 17904); assay: as above; format: cell-based; settings: 0.85 μg on 6 mm cellulose disk
Description: as §3

[5] = tested on: Pseudomonas putida (ATCC 11172); assay: as above; format: cell-based; settings: 0.85 μg on 6 mm cellulose disk
Description: as §3

Bacillus subtilis PY79 = assay: as above; format: cell-based; settings: 0.85 μg on 6 mm cellulose disk
Description: as §3

[6] = tested on: Staphylococcus aureus (ATCC 2913); assay: as above; format: cell-based; settings: 0.85 μg on 6 mm cellulose disk
Description: as §3

E. coli K-12 = assay: as above; format: cell-based; settings: 0.85 μg on 6 mm cellulose disk
Description: as §3

C. difficile ATCC 70057 = assay: MIC of more highly purified compounds (Table 3); format: cell-based; settings: Clostridioides difficile, ATCC70057, EtOAc extracts of more highly purified compounds
Source text: as §1

H. influenzae ATCC 49247 [7] = assay: MIC of more highly purified compounds (Table 3); format: cell-based; settings: Haemophilus influenzae, ATCC49247, EtOAc extracts of more highly purified compounds
Source text: as §1

K. pneumoniae ATCC 43816 = assay: MIC of more highly purified compounds (Table 3); format: cell-based
Source text: as §1

S. pneumoniae ATCC 49619 [8] = assay: MIC of more highly purified compounds (Table 3); format: cell-based; settings: Streptococcus pneumoniae, ATCC49619, EtOAc extracts of more highly purified compounds
Source text: as §1

[9] = radio-HPLC of C. thermocellum culture fed 14C-labelled amino acids (water solubility of metabolite); format: physicochemical; settings: no new peak in radio-HPLC of culture
Description: C. thermocellum was grown anaerobically in cellulose-containing medium. ^14C-labelled amino acids (^14C-L-Asp, ^14C-L-Leu and ^14C-L-Ile) were added to the culture media and radio-HPLC was performed. […] The orange suspension was centrifuged, the liquid layer separated from the cells and the DMSO was removed under reduced pressure. The final yield from this process was 14.7 mg.

S. pneumoniae ATCC 49619 [10] = assay: MIC broth dilution assay (Table 2); format: cell-based; settings: Streptococcus pneumoniae, ATCC49619, CAMHB + LHB, 20-24 h, read-out: Minimum inhibitory concentration (MIC)
Description: as §2

[11] = Maximum Tolerated Dose (MTD) study; format: in vivo; settings: CD-1 mice; subcutaneous 20, 40 or 80 mg/kg; observed 1 hour, 24 hours and 48 hours
Description: MTD studies were performed for Compound #1, Compound #2 and Compound #3. CD-1 mice, 6-8 weeks of age, were used for these studies. Groups of three mice were injected subcutaneously with 20 mg/kg, 40 mg/kg or 80 mg/kg of Compound #1, Compound #2 or Compound #3 Animals were observed 1 hour, 24 hours and 48 hours after administration of compound.

HeLa cells = assay: in vitro cell toxicology assay; format: cell-based, human
Description: (§4) In vitro cell toxicology assays were performed to evaluate the effect of Compound #1 on human cells. Compound #1, dissolved in DMSO, was added to vital cultures of HeLa cells and peripheral blood mononuclear cells (PMBC) one day after the cell cultures were started. For each cell line, pure DMSO (control #1), no DMSO (control #2) and Compound #1 in one times (T1-5 nM), five times (T5-25 nM) and ten times (T10-50 nM) of the bacteria-toxic concentration was added to the cell cultures for two sets each. All ten culture flasks per cell line (2×: T1, T5, T10, […]#2) were incubated under identical conditions and simple cell counts were performed on days two, four and six while replacing the cell culture medium to maintain the concentration of Compound #1.

[12] = tested on: peripheral blood mononuclear cells (PMBC); assay: in vitro cell toxicology assay; format: cell-based, human; settings: 5, 25, 50 nM
Description: as §4

S. enterica ATCC 14028 [13] = assay: MIC broth dilution assay (Table 2); format: cell-based; settings: Salmonella enterica, ATCC14028, CAMHB, 16-20 h, 35° C., read-out: Minimum inhibitory concentration (MIC)
Description: (§5) Stocks of test compounds and standards were diluted 1:100 to provide working stocks in each growth medium. For P. aeruginosa, S. enterica and S. aureus, eleven serial, one-half dilutions of the compounds and standards were prepared in 96-well polypropylene dilution blocks in cation-adjusted Mueller Hinton broth (CAMHB). The dilutions were transferred to 96-well assay plates. […] Bacterial suspensions were prepared and added to each well at a concentration of approximately 5×10^5 colony-forming-units per milliliter. The inoculated plates were incubated for 16-20 hours at 35±1° C. At the completion of incubation the wells of each plate were evaluated visually for the presence of bacterial growth. The MIC was the concentration at which there was no growth.

P. aeruginosa ATCC 27853 = assay: MIC broth dilution assay (Table 2); format: cell-based; settings: Pseudomonas aeruginosa, ATCC27853, CAMHB, 16-20 h, 35° C., read-out: Minimum inhibitory concentration (MIC)
Description: as §5

H. influenzae ATCC 49247 [14] = assay: MIC broth dilution assay (Table 2); format: cell-based; settings: ATCC49247, Haemophilus Test Medium Broth, 20-24 h, read-out: Minimum inhibitory concentration (MIC)
Description: as §5, with “The inoculated plates were incubated for 16-20 hours at 35±1° C.” left out

[15] = Salmonella enterica, ATCC14028, EtOAc extracts of more highly purified compounds, read-out: MIC
[16] = Acinetobacter baumannii, ATCC19606, EtOAc extracts of more highly purified compounds, read-out: MIC
[17] = Staphylococcus aureus, read-out: MIC
[18] = EtOAc extracts of more highly purified compounds

C[C@@H](O)[C@H]1C(=O)N2C(C(=O)O)=C(S[C@@H]3CN[C@H](C(=O)N(C)C)C3)[C@H](C)[C@H]12 [Meropenem]
MIC (S. enterica ATCC 14028 [1]; [15]): > 16 µg/mL | MIC (A. baumannii ATCC 19606; [16]): 1 µg/mL | MIC [2, 17]: > 16 µg/mL

CN[C@H](CC(C)C)C(=O)N[C@H]1C(=O)N[C@@H](CC(N)=O)C(=O)N[C@H]2C(=O)N[C@H]3C(=O)N[C@H](C(=O)N[C@H](C(=O)O)c4cc(O)cc(O)c4-c4cc3ccc4O)[C@H](O)c3ccc(c(Cl)c3)Oc3cc2cc(c3O[C@@H]2O[C@H](CO)[C@@H](O)[C@H](O)[C@H]2O[C@H]2C[C@](C)(N)[C@H](O)[C@H](C)O2)Oc2ccc(cc2Cl)[C@H]1O [VAN, vancomycin hydrochloride, reference compound]
MIC (C. difficile ATCC 700057; ATCC700057, read-out: Minimum inhibitory concentration (MIC)): 0.25 µg/mL

CN[C@@H]1[C@@H](O)[C@@H](O[C@@H]2[C@@H](O)[C@H](O[C@H]3OC(CNCCO)=CC[C@H]3N)[C@@H](N)C[C@H]2NC(=O)[C@@H](O)CCN)OC[C@]1(C)O [ACHN-490, Plazomicin]
MIC (A. baumannii ATCC 19606; [16]): 8 µg/mL

CCC(C)C1N[C@@H]2OC[C@H](OC(=O)C(CC=O)NC1=O)[C@H](O[C@@H]1OC[C@@H](O)[C@H](O)[C@@H]1O)[C@@H]2O (stereo partly shown) [Compound #1]
bacterial growth inhibition [3]: significantly inhibited bacterial growth | bacterial growth inhibition (E. coli (ATCC 25922)): significantly inhibited bacterial growth | bacterial growth inhibition [4]: significantly inhibited bacterial growth | bacterial growth inhibition [5]: significantly inhibited bacterial growth | bacterial growth inhibition (Bacillus subtilis PY79): significantly inhibited bacterial growth | bacterial growth inhibition [6]: significantly inhibited bacterial growth | bacterial growth inhibition (E. coli K-12): significantly inhibited bacterial growth | MIC (S. enterica ATCC 14028 [1]; [15]): 16 µg/mL | MIC (C. difficile ATCC 70057): 16 µg/mL | MIC (H. influenzae ATCC 49247 [7]): 0.5 µg/mL | MIC (A. baumannii ATCC 19606; [16]): 8 µg/mL | MIC [2, 17]: 16 µg/mL | MIC (K. pneumoniae ATCC 43816; Klebsiella pneumoniae, ATCC43816, EtOAc extracts of more highly purified compounds, read-out: MIC): 8 µg/mL | MIC (S. pneumoniae ATCC 49619 [8]): 16 µg/mL | water solubility [9]: water insoluble | MIC (C. difficile ATCC 700057; ATCC700057, C. difficile ATCC 700057, Supplemented Brucella Broth + LHB, anaerobic, 46-48 h, read-out: Minimum inhibitory concentration (MIC)): 32 µg/mL | MIC (S. pneumoniae ATCC 49619 [10]): 64 µg/mL | signs of illness (MTD study) [11]: No signs of illness | changes in physical appearance of cell line (HeLa cells; 5, 25, 50 nM): no changes in physical appearance | pyrogenic reactions (HeLa cells; 5, 25, 50 nM): No pyrogenic reactions | variation of death rates, treated vs untreated cell cultures (HeLa cells; 5, 25, 50 nM, cell counts on days two, four and six): less than 5% | proliferation rate (HeLa cells; T10 (50 nM)): slightly reduced | changes in physical appearance of cell line [12]: no changes in physical appearance | pyrogenic reactions [12]: No pyrogenic reactions | variation of death rates, treated vs untreated cell cultures ([12]; cell counts on days two, four and six): less than 5% | MIC (S. enterica ATCC 14028 [13]): > 128 µg/mL | MIC (P. aeruginosa ATCC 27853): > 128 µg/mL | MIC (H. influenzae ATCC 49247 [14]): 2 µg/mL (≈ 4.2 µM)

Colistin
MIC (S. enterica ATCC 14028 [1]; [18]): >32 µg/mL | MIC (A. baumannii ATCC 19606; [18]): >32 µg/mL | MIC [2]: 32 µg/mL | MIC (K. pneumoniae ATCC 43816; [18]): 0.12 µg/mL

Reference: patent publication US9382294B2, “Broad spectrum antibiotic compounds and use thereof” (Los Alamos National Security, LLC, priority 2013, dated 2016)
